Laboratory results published in patent publication US8435762B2, “Chimeric ligand-gated ion channels and methods of use thereof” (Howard Hughes Medical Institute, priority 2008, dated 2013).
“Also recorded” adds a separate entry of the source. Counter-ions that a name gives are not always drawn. Like-named read-outs stand apart in the source and are kept apart here.

Assays:
α7-5HT3 W77F [1] = biological target: T1, α7-5HT3 W77F (Homo sapiens, UniProt P36544, M226I/T225I/W77F); assay: fluorescence membrane potential (MP) assay, HEK 293 cells; format: cell-based, human/mouse
T1 construct: expressed in transfected cells; host or cells: HEK 293 cells (ATCC CRL-1573)

[2] = biological target: T2, α7-5HT3 wt chimeric receptor (Homo sapiens, UniProt P36544, M226I/T225I); assay: as above; format: cell-based, human/mouse; details: for activity against α7-5HT3 wt (unmodified) receptor: dose response curves, MP assay; for EC50: read-out: EC50-MP, α7 wt, IPD 5HT3, value (s.e.m.)
T2 construct: expressed in transfected cells; host or cells: HEK 293 cells

α7-5HT3 Q79G Q139M = biological target: T3, α7-5HT3 Q79G Q139M (Homo sapiens, UniProt P36544, M226I/Q139M/Q79G/T225I); assay: as above; format: cell-based, human/mouse
T3 construct: expressed in transfected cells

α7-5HT3 W77F [3] = biological target: T1, α7-5HT3 W77F; assay: whole cell voltage clamp recordings (Iss, Ipeak); format: cell-based, human/mouse
[4] = biological target: T2, α7-5HT3 wt chimeric receptor; assay: whole cell voltage clamp recordings (Iss, Ipeak); format: cell-based, human/mouse
α7-5HT3 Y115F = biological target: T4, α7-5HT3 Y115F (Homo sapiens, UniProt P36544, M226I/T225I/Y115F); assay: efficacy on ACh-insensitive mutant; format: cell-based, human/mouse
T4 construct: expressed in transfected cells; host or cells: not restated

α7-5HT3 Y210F = biological target: T5, α7-5HT3 Y210F (Homo sapiens, UniProt P36544, M226I/T225I/Y210F); assay: efficacy on ACh-insensitive mutant; format: cell-based, human/mouse
T5 construct: expressed in transfected cells; host or cells: not restated

α7-5HT3 L141F [5] = biological target: T6, α7-5HT3 L141F (Homo sapiens, UniProt P36544, L141F/M226I/T225I); assay: fluorescence membrane potential (MP) assay, HEK 293 cells; format: cell-based, human/mouse; details: for EC50: read-out: EC50-MP, α7 L141F, IPD 5HT3, value (s.e.m.)
T6 construct: expressed in transfected cells; host or cells: HEK 293 cells (ATCC CRL-1573)

α7-GlyR L141F = biological target: T7, α7-GlyR L141F (Homo sapiens, UniProt P36544, L141F); assay: whole cell voltage clamp recordings (Iss, Ipeak); format: cell-based; details: IPD GlyR
T7 construct: expressed in transfected cells; host or cells: HEK 293 cells (A15); cortical neurons transduced with AAV, synapsin promoter (A22)

α7-5HT3 Q79G [6] = biological target: T8, α7-5HT3 Q79G (Homo sapiens, UniProt P36544, M226I/Q79G/T225I); assay: fluorescence membrane potential (MP) assay, HEK 293 cells; format: cell-based, human/mouse; details: read-out: EC50-MP; α7 Q79G, IPD 5HT3; value (s.e.m.)
T8 construct: expressed in transfected cells; host or cells: HEK 293 cells (ATCC CRL-1573)

α7-5HT3 Q79G [7] = biological target: T8, α7-5HT3 Q79G; assay: whole cell voltage clamp recordings (Iss, Ipeak); format: cell-based, human/mouse
α7-5HT3 L141F [8] = biological target: T6, α7-5HT3 L141F; assay: whole cell voltage clamp recordings (Iss, Ipeak); format: cell-based, human/mouse
[9] = biological target: T9, α7-5HT3 HC L141F (R425Q R429D R433A) (Homo sapiens, UniProt P36544, L141F/M226I/T225I); assay: whole cell voltage clamp recordings (Iss, Ipeak); format: cell-based, human/mouse
T9 construct: expressed in transfected cells; host or cells: HEK 293 cells (A14); mouse layer 2/3 cortical neurons (A19)

α7-GlyR L141F Y115F = biological target: T10, α7-GlyR L141F Y115F (Homo sapiens, UniProt P36544, L141F/Y115F); assay: whole cell voltage clamp recordings (Iss, Ipeak); format: cell-based; details: IPD GlyR
T10 construct: expressed in transfected cells; layer 2/3 cortical neurons (A20)

α7-GABA C L141F = biological target: T11, α7-GABA C L141F (Homo sapiens, UniProt P36544, L141F); assay: whole cell voltage clamp recordings (Iss, Ipeak); format: cell-based; details: IPD GABAC
T11 construct: expressed in transfected cells; host or cells: HEK 293 cells

[10] = biological target: T12, α7-5HT3 HC L141F expressed in layer ⅔ cortical neurons (Homo sapiens, UniProt P36544, L141F/M226I/T225I); assay: cell attached recording of firing in layer ⅔ cortical neurons; format: cell-based, mouse; details: 3 μM
T12 construct: expressed in transfected cells; host or cells: HEK 293 cells (A14); mouse layer 2/3 cortical neurons (A19)
Description: FIG. 7. High conductance chimeric cationic ligand-gated ion channel activates layer ⅔ cortical neurons. A. Current trace from voltage clamp recordings in HEK 293 cells transfected with high conductance (HC) α7-5HT3 L141F receptors showing sustained response of the receptor to compound 89S. B. Cell attached extracellular recording of action currents from mouse layer ⅔ cortical neurons transfected with HC α7-5HT3 L141F. In addition to the mutation in the ligand binding domain (e.g., L141F), these receptors contain high conductance inducing mutations in the α7-5HT3 sequence: R425Q R429D R433A in SEQ ID NO: 1.
To develop a neuron activating cation channel, we further modified the α7-5HT3 channel with three previously described mutations that were reported to provide a 100-fold increase in conductance: R425Q R429D R433A.

[11] = biological target: T13, α7-GlyR L141F Y115F expressed in layer ⅔ cortical neurons (Homo sapiens, UniProt P36544, L141F/Y115F); assay: rheobase of layer ⅔ cortical neurons; format: cell-based
T13 construct: expressed in transfected cells; layer 2/3 cortical neurons (A20)
Description: (§1) FIG. 8. Chimeric α7-GlyR ligand-gated ion channel conducts chloride and greatly reduces excitability of cortical neurons in the presence of the cognate ligand. A. Current trace from voltage clamp recordings in transfected HEK 293 cells showing sustained responses of α7-GlyR and α7-GABA C mutant chimeric receptors to activation by synthetic ligands of the invention. Black line indicates time course of ligand application. […] C. Rheobase, which is the amount of current required to elicit an action potential, is not affected by expression of α7-GlyR L141F Y115F (labeled as condition: PRE). However, rheobase increases 10-fold in the presence of 10 μM compound 89S. There is no change in rheobase in untransfected neurons, even in the presence of 30 μM compound 89S. This reduction of excitability in α7-GlyR L141F Y115F expressing neurons is reversed after washout of the synthetic ligand (labeled as condition: WASH).
(§2) This was measured by the amount of current required to evoke and action potential, also termed rheobase (FIG. 8C). We found no difference in the rheobase of α7-GlyR L141F Y115F expressing neurons and untransfected cells.

untransfected neurons = assay: rheobase of untransfected cortical neurons; format: cell-based; details: even at 30 μM
Description: as §1, §2

[12] = biological target: T14, α7-GlyR L141F in cortical neurons (AAV, synapsin promoter) (Homo sapiens, UniProt P36544, L141F); assay: excitability of AAV-transduced cortical neurons; format: cell-based; details: 10 μM; current injection up to 500 pA
T14 construct: expressed in transfected cells; host or cells: HEK 293 cells (A15); cortical neurons transduced with AAV, synapsin promoter (A22)
Procedure: (§3) FIG. 9. Synthetic ligand-induced silencing of a cortical neuron transduced by viral gene delivery α7-GlyR L141F mutant chimeric ligand-gated ion channels. Cortical neurons were transduced with adeno-associated virus (AAV) encoding the α7-GlyR L141F mutant chimeric ligand-gated ion channel under the control of the neuron-specific synapsin promoter. A. Excitability of a transfected cortical neuron before, during, and after administration of compound 89S (10 μM). […] The neuron fires normally with <100 pA injected current before and after the compound administration. B. Excitability of a non-transduced neuron is shown for comparison. Non-transduced neurons are not affected by administration of compound 89S, even at a higher concentration (30 μM).
(§4) The synapsin promoter, which restricts gene expression to neuronal cell types, was used to drive expression of α7-GlyR L141F in an adeno-associated virus (AAV) gene delivery vector.

non-transduced neurons = assay: excitability of non-transduced cortical neurons; format: cell-based; details: even at 30 μM
Procedure: as §3, §4

[13] = read-out: EC50-Ipeak, peak current, IPD 5HT3
[14] = read-out: EC50-Iss, steady state current, IPD 5HT3
[15] = EC50-Ipeak, peak current, *complex: multiphasic dose response

T8 sequence (P36544 with tags, fused parts or gaps Q79G/T225I/M226I): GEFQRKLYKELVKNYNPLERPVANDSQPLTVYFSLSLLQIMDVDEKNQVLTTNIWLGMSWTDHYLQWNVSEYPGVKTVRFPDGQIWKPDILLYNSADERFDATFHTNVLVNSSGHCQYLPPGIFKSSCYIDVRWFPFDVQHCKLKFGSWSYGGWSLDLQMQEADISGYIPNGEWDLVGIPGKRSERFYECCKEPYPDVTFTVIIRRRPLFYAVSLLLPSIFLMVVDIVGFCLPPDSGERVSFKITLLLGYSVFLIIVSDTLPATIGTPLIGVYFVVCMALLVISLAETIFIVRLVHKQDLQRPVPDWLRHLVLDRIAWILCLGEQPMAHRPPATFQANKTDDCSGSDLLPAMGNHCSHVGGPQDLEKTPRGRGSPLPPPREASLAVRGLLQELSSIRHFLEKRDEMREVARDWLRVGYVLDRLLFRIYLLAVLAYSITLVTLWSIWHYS
T13 sequence (P36544 with tags, fused parts or gaps Y115F/L141F): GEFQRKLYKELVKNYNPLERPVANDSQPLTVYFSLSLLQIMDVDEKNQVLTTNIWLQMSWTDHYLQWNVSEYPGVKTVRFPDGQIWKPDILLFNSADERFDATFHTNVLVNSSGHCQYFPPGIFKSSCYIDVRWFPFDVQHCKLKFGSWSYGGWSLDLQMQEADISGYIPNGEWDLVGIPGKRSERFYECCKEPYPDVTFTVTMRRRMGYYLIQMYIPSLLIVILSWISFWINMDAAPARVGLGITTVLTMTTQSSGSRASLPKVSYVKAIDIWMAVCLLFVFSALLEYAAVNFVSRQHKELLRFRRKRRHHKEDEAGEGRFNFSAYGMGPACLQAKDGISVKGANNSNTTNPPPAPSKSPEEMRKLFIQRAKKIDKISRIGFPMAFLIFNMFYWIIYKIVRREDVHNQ
T6 sequence (P36544 with tags, fused parts or gaps L141F/T225I/M226I): as the sequence (P36544 with tags, fused parts or gaps Q79G/T225I/M226I) above, with G57Q, L119F counted along it
T1 sequence (P36544 with tags, fused parts or gaps W77F/T225I/M226I): as the sequence (P36544 with tags, fused parts or gaps Q79G/T225I/M226I) above, with W55F, G57Q counted along it
T2 sequence (P36544 with tags, fused parts or gaps T225I/M226I): as the sequence (P36544 with tags, fused parts or gaps Q79G/T225I/M226I) above, with G57Q counted along it
T7 sequence (P36544 with tags, fused parts or gaps L141F): as the sequence (P36544 with tags, fused parts or gaps Y115F/L141F) above, with F93Y counted along it
T10 sequence (P36544 with tags, fused parts or gaps Y115F/L141F): as the sequence (P36544 with tags, fused parts or gaps Y115F/L141F) above
T3 sequence (P36544 with tags, fused parts or gaps Q79G/Q139M/T225I/M226I): as the sequence (P36544 with tags, fused parts or gaps Q79G/T225I/M226I) above, with Q117M counted along it
T9 sequence (P36544 with tags, fused parts or gaps L141F/T225I/M226I): as the sequence (P36544 with tags, fused parts or gaps Q79G/T225I/M226I) above, with G57Q, L119F, R403Q, R407D, R411A counted along it
T14 sequence (P36544 with tags, fused parts or gaps L141F): as the sequence (P36544 with tags, fused parts or gaps Y115F/L141F) above, with F93Y counted along it
T11 sequence (P36544 with tags, fused parts or gaps L141F): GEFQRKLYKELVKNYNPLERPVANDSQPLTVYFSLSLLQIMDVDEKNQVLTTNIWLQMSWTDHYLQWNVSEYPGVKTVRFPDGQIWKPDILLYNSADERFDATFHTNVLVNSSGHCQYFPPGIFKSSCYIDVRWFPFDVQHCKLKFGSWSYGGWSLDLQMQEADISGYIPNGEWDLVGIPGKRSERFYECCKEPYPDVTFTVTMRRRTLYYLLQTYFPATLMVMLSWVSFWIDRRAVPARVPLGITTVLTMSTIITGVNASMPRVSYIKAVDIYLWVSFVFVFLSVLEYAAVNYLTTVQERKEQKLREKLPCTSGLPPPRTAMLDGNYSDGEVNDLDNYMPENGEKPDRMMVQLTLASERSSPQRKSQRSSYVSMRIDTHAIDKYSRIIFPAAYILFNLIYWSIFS
T5 sequence (P36544 with tags, fused parts or gaps Y210F/T225I/M226I): as the sequence (P36544 with tags, fused parts or gaps Q79G/T225I/M226I) above, with G57Q, Y188F counted along it
T12 sequence (P36544 with tags, fused parts or gaps L141F/T225I/M226I): as the sequence (P36544 with tags, fused parts or gaps Q79G/T225I/M226I) above, with G57Q, L119F, R403Q, R407D, R411A counted along it
T4 sequence (P36544 with tags, fused parts or gaps Y115F/T225I/M226I): as the sequence (P36544 with tags, fused parts or gaps Q79G/T225I/M226I) above, with G57Q, Y93F counted along it

## O=C(N[C@@H]1CN2CCC1CC2)c1ccc(-c2ccc(F)cc2)cc1 [Compound 132S, (S)-4′-fluoro-N-(quinuclidin-3-yl)biphenyl-4-carboxamide TFA]
α7-5HT3 W77F [1]; FIG. 5 dose response curves
  selective activation of α7-5HT3 W77F over receptors with Q79G and L141F mutations: selectively activated
α7-5HT3 W77F [1]; read-out: EC50-MP; α7 W77F, IPD 5HT3; value (s.e.m.)
  EC50: 4300 ± 500 nM

## CS(=O)(=O)c1ccc(C(=O)N[C@H]2CN3CCC2CC3)cc1 [Compound 38R, (R)-4-(methylsulfonyl)-N-(quinuclidin-3-yl)benzamide TFA]
[2]; TFA
  activity against α7-5HT3 wt (unmodified) receptor: no activity; also recorded: did not induce activate
α7-5HT3 Q79G Q139M; EC50MP
  fold improvement in potency (EC50), α7-5HT3 Q79G Q139M relative to α7-5HT3 Q79G: 8 fold
α7-5HT3 Q79G Q139M; read-out: EC50-MP, α7 Q79G Q139M, IPD 5HT3, value (s.e.m.)
  EC50: 230 ± 70 nM

## O=C(N[C@@H]1CN2CCC1CC2)c1ccc(-c2ccccc2)cc1 [Compound 28S, (S)—N-(quinuclidin-3-yl)biphenyl-4-carboxamide TFA]
[2]
  activity against α7-5HT3 wt (unmodified) receptor: did not induce activate
α7-5HT3 W77F [3]; [13]
  EC50: 11300 nM
α7-5HT3 W77F [3]; [14]
  EC50: 2400 nM

## O=C(N[C@H]1CN2CCC1CC2)c1ccc(Cl)cc1 [PNU-282987]
[2]
  EC50: 60 nM
[4]; peak current, IPD 5HT3, read-out: EC50-Ipeak
  EC50: 800 nM
[4]; steady state current, IPD 5HT3, read-out: EC50-Iss
  EC50: 90 nM
α7-5HT3 Y115F
  efficacy with α7-5HT3 carrying Y115F: greatly reduced or eliminated
α7-5HT3 Y210F
  efficacy with α7-5HT3 carrying Y210F: greatly reduced or eliminated

## COc1ccc(C(=O)N[C@@H]2CN3CCC2CC3)c(OC)c1 [Compound 88S, (S)-2,4-dimethoxy-N-(quinuclidin-3-yl)benzamide]
[2]
  activity against α7-5HT3 wt (unmodified) receptor: no activity
α7-5HT3 L141F [5]
  EC50: 100 ± 100 nM

## COc1ccc(Cl)cc1C(=O)N[C@@H]1CN2CCC1CC2 [Compound 118S, (S)-5-chloro-2-methoxy-N-(quinuclidin-3-yl)benzamide TFA]
α7-GlyR L141F; [15]
  EC50: 3200 nM
α7-GlyR L141F; EC50-Iss, steady state current
  EC50: 3000 nM

## COc1ccc(F)cc1C(=O)N[C@@H]1CN2CCC1CC2 [Compound 119S, (S)-5-fluoro-2-methoxy-N-(quinuclidin-3-yl)benzamide TFA]
α7-GlyR L141F; [15]
  EC50: 3800 nM
α7-GlyR L141F; EC50-Iss, steady state current
  EC50: 2500 nM

## COc1ccccc1C(=O)N[C@@H]1CN2CCC1CC2 [Compound 19S, (S)-2-methoxy-N-(quinuclidin-3-yl)benzamide]
[2]
  activity against α7-5HT3 wt (unmodified) receptor: did not induce activate
α7-5HT3 L141F [5]
  EC50: 1400 nM

## c1ccc2c(c1)CC1C(=NN2)C2CCN1CC2 (stereo not drawn) [Compound 212]
[2]
  EC50: > 100000 nM
α7-5HT3 Q79G [6]
  EC50: > 100000 nM
α7-5HT3 L141F [5]
  EC50: 750 nM

## CCCc1ccc(C(=O)N[C@@H]2CN3CCC2CC3)cc1 [Compound 165S, (S)-4-propyl-N-(quinuclidin-3-yl)benzamide TFA]
α7-5HT3 Q79G [6]
  EC50: 1900 nM
α7-5HT3 Q79G [7]; [13]
  EC50: 5900 nM
α7-5HT3 Q79G [7]; [14]
  EC50: 900 nM

## O=C(N[C@@H]1CN2CCC1CC2)c1ccc(-c2cccs2)cc1 [Compound 34S, (S)—N-(quinuclidin-3-yl)-4-(thiophen-2-yl)benzamide]
[2]
  activity against α7-5HT3 wt (unmodified) receptor: did not induce activate
α7-5HT3 W77F [1]; α7 W77F, IPD 5HT3; value (s.e.m.); read-out: EC50-MP
  EC50: 1400 nM

## COc1ccc(OC)c(C(=O)N[C@@H]2CN3CCC2CC3)c1 [Compound 89S, (S)-2,5-dimethoxy-N-(quinuclidin-3-yl)benzamide]
[2]
  activity against α7-5HT3 wt (unmodified) receptor: no activity
α7-5HT3 L141F [5]; FIG. 5 dose response curves
  selectivity for L141F relative to other mutant receptors: selective
α7-5HT3 L141F [5]
  EC50: 400 ± 100 nM
α7-5HT3 L141F [8]; [13]
  EC50: 3200 nM
α7-5HT3 L141F [8]; [14]
  EC50: 700 nM
[9]; read-out: EC50-Ipeak, peak current, IPD 5HT3 HC
  EC50: 2300 nM
[9]; read-out: EC50-Iss, steady state current, IPD 5HT3 HC
  EC50: 1500 nM
α7-GlyR L141F; EC50-Iss, steady state current
  EC50: 1800 nM
α7-GlyR L141F; peak current, *complex: multiphasic dose response
  EC50-Ipeak: *complex
α7-GlyR L141F Y115F; EC50-Ipeak, peak current
  EC50: 6900 nM
α7-GlyR L141F Y115F; EC50-Iss, steady state current
  EC50: 5200 nM
α7-GABA C L141F; EC50-Ipeak, peak current
  EC50: 8800 nM
α7-GABA C L141F; EC50-Iss, steady state current
  EC50: 4900 nM
[10]
  firing rate of neurons: sustainably increased
[11]; 10 μM
  increase of rheobase: 10 fold
[11]; washed away with drug-free buffer
  reversibility of the effect on neuronal excitability after washout: rapidly reversible; also recorded: reversed
Untransfected neurons
  change in rheobase in untransfected neurons: no change
[12]
  excitability (silencing) of transduced neurons: rendered sensitive to silencing; also recorded: poorly excitable
non-transduced neurons
  excitability of non-transduced neurons: unaffected; also recorded: not affected
